Literature values, collected in US8440702B2, “1,3-oxazolidin -2-one derivatives useful as CETP inhibitors” (Merck Sharp & Dohme Corp., priority 2005, dated 2013).

Settings: clinical trials terminated

SMILES: CCOC(=O)N1c2ccc(C(F)(F)F)cc2[C@@H](N(Cc2cc(C(F)(F)F)cc(C(F)(F)F)c2)C(=O)OC)C[C@H]1CC [torcetrapib]
- mortality in patients using the drug during outcomes studies: increased mortality
